The values below come from patent US7973066B2, “Pyrrolo[1,2-A]imidazoledione effective in the treatment of peripheral neurotoxicity induced by chemotherapeutic agents” (Neurotune AG, priority 2006, dated 2011).

Structures are written as SMILES. Read-outs that look alike come from different tables or passages of the source.

The subject of data set [1] is HT29 human colon carcinoma cell line. As to the kind of experiment: In vitro cytotoxicity and combination studies, ATPlite. The settings on record: for IC50: read-out: cytotoxic effect IC50. On the procedure:
In order to verify if the use of NiK-13317 for the treatment of CIPN would not affect the efficacy of anticancer treatments, the effect of NiK-13317 on cytotoxicity of known anticancer drugs was examined in vitro using HT29 human colon carcinoma cell line.
After 72 hours, cells were lysed and cell metabolic activity was quantified with ATPlite kit (Perkin Elmer Life Science) following manufacturer's recommendations. The ATP present in all metabolically active cells catalyses a reaction of transformation of D-luciferin by Luciferase, producing a luminescent signal measured using VICTOR^3™ Multi Label Reader (Perkin Elmer). Results were expressed as percentage of luminescence produced (i.e. ATP produced) compared to the control. Complete concentration-response curves with anticancer drugs were constructed in order to identify the concentrations producing a submaximal and a maximal cytotoxic effect, to be utilized for combination experiments.

Data set [2] deals with Vincristine-induced peripheral neuropathy. Nature of the data set: Vincristine-induced peripheral neuropathy, paw pressure test. It counts as in vivo, rat. The conditions noted are these: for anti-hyperalgesic effect on mechanical hyperalgesia after repeated treatment: 30 mg/kg i.p. daily during last five days of vincristine, 1 hr and 12 hr after last administration; for reversal of vincristine mechanical hyper-sensitivity (paw pressure threshold): 100 mg/kg p.o., 30 and 60 min after treatment, 4 days after last vincristine injection; for activity on vehicle treated animals (paw pressure): vehicle treated rats, p.o. On the procedure:
Vincristine was administered i.v. (150 μg/kg), every two days until a cumulative dose of 750 μg/kg was reached. Paw mechanical iper-sensitivity was evaluated 4 days after the last vincristine injection (Marchand F. et al. 2003, Brain Res. 980:117-120).
(§1) When a chemotherapeutic injection was to be given on a same day as behavioural testing, rats were injected after the measurement was taken.
(§2) Paw mechanical iper-sensitivity was determined using a Randall & Selitto apparatus exerting a force that increases at constant rate (32 g/s) in agreement with Leighton G. E. et al. (1988, Br. J. Pharmacol 93:553-560). The stimulus at which rats withdraw the paw was evaluated before and at different times after drugs treatment. Results represent the mean of mechanical thresholds expressed as grams. To avoid any possible damage to the animal paw the maximum applied force was fixed at 240 g.

Data set [3] concerns Taxol-induced peripheral neuropathy. As to the kind of experiment: Taxol-induced peripheral neuropathy, paw pressure test. The class given is in vivo, rat. The conditions noted are these: for anti-hyperalgesic activity, i.v.: 3 mg/kg i.v.; for anti-hyperalgesic activity, i.v. / anti-hyperalgesic activity, i.p.: 30-90 min from administration; for anti-hyperalgesic activity, i.p.: 30 mg/kg i.p.; for rat paw pressure threshold, anti-hyperalgesic effect: 100 mg/kg given orally, 30 and 60 min after treatment. On the procedure: Taxol neuropathy was induced by i.p. administration (0.5 mg/kg) once a day, on days 1, 3, 5, 8. Cumulative taxol dose was 2 mg/kg. The pharmacological test was performed 14-18 days after the last taxol injection (Polomano R. C. et al. 2001, Pain 94:293-304).
as §1, §2

Data set [4] has as its system Oxaliplatin-induced peripheral neuropathy. Nature of the data set: Oxaliplatin-induced peripheral neuropathy, paw pressure test. The conditions noted are these: for prevention of oxaliplatin-induced decrease of mechanical threshold: 100 mg/kg p.o. once daily starting three days before oxaliplatin, tested every week 30 min after administration; for effects on vehicle treated animals (paw pressure): vehicle treated rats. The class given is in vivo, rat. The method, then:
The cumulative dose of oxliplatin was 36 mg/kg (Cavaletti G. et al. 2001, Eur. J. Cancer 37:2457-2463).
as §1, §2
Maximum hyperalgesia was obtained after a two weeks period of treatment. […] Compound administration was performed in the same days of chemotherapeutic injection.

Data set [5] has as its system CIPN. The conditions noted are these: cancer patients with CIPN; cited from earlier work.
For data set [6], the system named is cisplatin-induced pain syndrome. The conditions noted are these: 51 patients, maximum dose 100 mg/day; cited from earlier work.
In data set [7] the test system is CIPN. The settings on record: phase III, 10 weeks of therapy; cited from earlier work.

The IC50 is the midpoint of a concentration-inhibition curve. For `CC[C@]1(O)C[C@H]2CN(CCc3c([nH]c4ccccc34)[C@@](C(=O)OC)(c3cc4c(cc3OC)N(C=O)[C@H]3[C@@](O)(C(=O)OC)[C@H](OC(C)=O)[C@]5(CC)C=CCN6CC[C@]43[C@@H]65)C2)C1` [vincristine], the “concentration of maximal cytotoxic effect” value in data set [1] (HT29 cells, 72 hours, ATPlite) is given as 100 nM. In addition, the concentration for half-maximal inhibition (IC50) in data set [1] (Homo sapiens, HT-29, 72 h) is 7 nM. Also, the “mechanical hyperalgesia produced by vincristine treatment (reduction of paw pressure threshold)” value in data set [2] (vincristine 150 μg/kg i.v. every two days, cumulative 750 μg/kg) is “marked and prolonged mechanical hyperalgesia”.

As for `CC(=O)O[C@H]1C(=O)[C@@]2(C)[C@H]([C@H](OC(=O)c3ccccc3)[C@]3(O)C[C@H](OC(=O)[C@H](O)[C@@H](NC(=O)c4ccccc4)c4ccccc4)C(C)=C1C3(C)C)[C@]1(OC(C)=O)CO[C@@H]1C[C@@H]2O` [taxol], in data set [1] (HT29 cells, 72 hours, ATPlite), the “concentration of maximal cytotoxic effect” value amounted to 100 nM. In addition, the IC50 in data set [1] (Homo sapiens, HT-29, 72 h) is 8 nM. In addition, the “mechanical hyperalgesia produced by taxol treatment” value in data set [3] (taxol 0.5 mg/kg i.p. on days 1, 3, 5, 8) is recorded as “significant mechanical hyperalgesia”.

For `O=C1[O][Pt]2([NH][C@@H]3CCCC[C@H]3[NH]2)[O]C1=O` [oxaliplatin], the IC50 in data set [1] (HT29 cells, 72 hours, ATPlite) was determined as 36000 nM. Moreover, the “paw pressure threshold change caused by repeated oxaliplatin” value in data set [4] (oxaliplatin 2.4 mg/kg i.p., 5 consecutive days every week, evident from first week) was “decrease in paw pressure threshold”.

As for `NCC1(CC(=O)O)CCCCC1` [gabapentin], in data set [4], the “prevention of oxaliplatin-induced decrease of mechanical threshold” value is given as “only a moderated anti-hyperalgesic effect”. Also, in data set [4] (after 3 weeks of oxaliplatin, p.o., 30 min after treatment), the “anti-hyperalgesic activity, pharmacodynamic experiment, 30 min” value is recorded as “only a moderate effect”. In addition, the “effects on vehicle treated animals (paw pressure)” value in data set [4] (p.o.) is given as “Neither NiK-13317 or gabapentin induced significant effects”. Moreover, in data set [5], the “adverse side effects such as nystagmus and dizziness” value is on record as “significant more adverse side effects”; the “reduction of pain intensity (NRS score), sensory neuropathy (ECOG rating), and other adverse events” value is listed as “failed to reduce”. Also, in data set [3], the “anti-hyperalgesic activity, i.v.” value was “lacked of any significant effect”; the “anti-hyperalgesic activity, i.p.” value was “lacked of any significant effect”; the “rat paw pressure threshold, anti-hyperalgesic effect” value is “not able to induce any anti-hyperalgesic effect”. In data set [2], the “anti-hyperalgesic effect on mechanical hyperalgesia after repeated treatment” value was “no significant effects”, the “reversal of vincristine mechanical hyper-sensitivity (paw pressure threshold)” value is given as “lacked of any significant effects” and the “activity on vehicle treated animals (paw pressure)” value is given as “devoid of any significant activity”.

As to `Cc1ccc(N2C(=O)CN3C(=O)CCC32)cc1` (racemic) [NiK-13317, racemic 1-(4-Methylphenyl)dihydro-1H-pyrrolo[1,2-a]imidazole-2,5(3H,6H)-dione], the “prevention of oxaliplatin-induced decrease of mechanical threshold” value in data set [4] is on record as “completely prevented”. The “anti-hyperalgesic activity, pharmacodynamic experiment, 8 hr” value in data set [4] (after 3 weeks of oxaliplatin, 100 mg/kg p.o., 8 hr after treatment) is listed as “still active”. For the same molecule, in data set [4] (after 3 weeks of oxaliplatin, given orally, 30 min and 4 hr after administration), the “anti-hyperalgesic activity, pharmacodynamic experiment, 30 min and 4 hr” value is reported as “active”. Also, in data set [4] (p.o.), the “effects on vehicle treated animals (paw pressure)” value was “Neither NiK-13317 or gabapentin induced significant effects”. Besides, in data set [3], the “anti-hyperalgesic activity, i.v.” value is “active”; the “anti-hyperalgesic activity, i.p.” value is “active”; the “rat paw pressure threshold, anti-hyperalgesic effect” value is listed as “significantly increased”. Moreover, in data set [2], the “anti-hyperalgesic effect on mechanical hyperalgesia after repeated treatment” value is recorded as “statistically significant (p<0.01) anti-hyperalgesic effect”, the “reversal of vincristine mechanical hyper-sensitivity (paw pressure threshold)” value is “pronounced significant reversal” and the “activity on vehicle treated animals (paw pressure)” value was “devoid of any significant activity”. In data set [2] (30 mg/kg i.p. daily, 5 days), the “development of tolerance after repeated treatment” value was “without development of tolerance”. Also, the “anti-hyperalgesic effect 23 hr after the 4th administration” value in data set [2] (30 mg/kg i.p. daily, 23 hr after 4th administration (1 hr before last injection)) is given as “statistically significant effect (p<0.05)”.

`Cc1ccc(N2C(=O)CN3C(=O)CCC32)cc1` (single isomer, unassigned) [compound of formula (I), 1-(4-Methylphenyl)dihydro-1H-pyrrolo[1,2-a]imidazole-2,5(3H,6H)-dione]: the “development of tolerance (general statement)” value in data set [2] (rat, in vivo) was “not to develop tolerance”.

As to `CNCCC=C1c2ccccc2CCc2ccccc21` [nortriptyline], the “efficacy over placebo on cisplatin-induced pain syndrome” value in data set [6] is “lack of nortriptyline efficacy over placebo”.

As to `Nc1nnc(-c2cccc(Cl)c2Cl)c(N)n1` [lamotrigine], the “reduction of CIPN” value in data set [7] is “failed to reduce CIPN”.
